Our source for the Kd values is publication PMC9338045, “An acquired phosphatidylinositol 4-phosphate transport initiates T-cell deterioration and leukemogenesis” (Nature Communications, 2022).

One experiment deals with T1, OSBP (Homo sapiens, UniProt P22059).
T1 construct: full-length cDNA in pGEX-4T-1, E. coli Rosetta(DE3), GST fusion, GST tag removed by thrombin
T1 sequence (P22059 1-807): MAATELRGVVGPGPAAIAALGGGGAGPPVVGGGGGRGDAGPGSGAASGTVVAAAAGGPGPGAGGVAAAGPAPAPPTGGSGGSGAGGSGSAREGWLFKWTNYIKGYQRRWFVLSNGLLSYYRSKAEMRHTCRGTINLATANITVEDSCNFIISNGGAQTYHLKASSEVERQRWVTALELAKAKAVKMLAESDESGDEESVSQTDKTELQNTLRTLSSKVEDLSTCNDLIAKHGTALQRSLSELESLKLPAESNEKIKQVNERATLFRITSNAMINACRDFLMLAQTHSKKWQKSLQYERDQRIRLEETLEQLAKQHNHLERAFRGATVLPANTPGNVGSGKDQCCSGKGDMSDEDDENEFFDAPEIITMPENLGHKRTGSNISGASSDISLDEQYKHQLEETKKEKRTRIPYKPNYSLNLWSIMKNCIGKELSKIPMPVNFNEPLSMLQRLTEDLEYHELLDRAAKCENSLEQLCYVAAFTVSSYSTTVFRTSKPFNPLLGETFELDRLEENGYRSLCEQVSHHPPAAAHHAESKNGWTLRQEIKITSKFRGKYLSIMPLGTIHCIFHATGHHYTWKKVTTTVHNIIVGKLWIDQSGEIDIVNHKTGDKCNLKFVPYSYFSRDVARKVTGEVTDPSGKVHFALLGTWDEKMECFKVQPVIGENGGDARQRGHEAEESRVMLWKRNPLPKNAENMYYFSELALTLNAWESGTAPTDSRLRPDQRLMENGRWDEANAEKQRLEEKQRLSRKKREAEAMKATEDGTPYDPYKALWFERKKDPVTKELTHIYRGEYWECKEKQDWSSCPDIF
In words: SPR (Biacore 8K, protein immobilised on CM5 by amine coupling, kon/koff). In kind it is binding. Background: SPR reads the build-up and loss of mass on a sensor chip optically.

Another experiment has as its target T2, ORP4L (Homo sapiens, UniProt Q969R2).
T2 construct: gene OSBP2; full-length cDNA in pGEX-4T-1, E. coli Rosetta(DE3), GST fusion, GST tag removed by thrombin
T2 sequence (Q969R2 1-916): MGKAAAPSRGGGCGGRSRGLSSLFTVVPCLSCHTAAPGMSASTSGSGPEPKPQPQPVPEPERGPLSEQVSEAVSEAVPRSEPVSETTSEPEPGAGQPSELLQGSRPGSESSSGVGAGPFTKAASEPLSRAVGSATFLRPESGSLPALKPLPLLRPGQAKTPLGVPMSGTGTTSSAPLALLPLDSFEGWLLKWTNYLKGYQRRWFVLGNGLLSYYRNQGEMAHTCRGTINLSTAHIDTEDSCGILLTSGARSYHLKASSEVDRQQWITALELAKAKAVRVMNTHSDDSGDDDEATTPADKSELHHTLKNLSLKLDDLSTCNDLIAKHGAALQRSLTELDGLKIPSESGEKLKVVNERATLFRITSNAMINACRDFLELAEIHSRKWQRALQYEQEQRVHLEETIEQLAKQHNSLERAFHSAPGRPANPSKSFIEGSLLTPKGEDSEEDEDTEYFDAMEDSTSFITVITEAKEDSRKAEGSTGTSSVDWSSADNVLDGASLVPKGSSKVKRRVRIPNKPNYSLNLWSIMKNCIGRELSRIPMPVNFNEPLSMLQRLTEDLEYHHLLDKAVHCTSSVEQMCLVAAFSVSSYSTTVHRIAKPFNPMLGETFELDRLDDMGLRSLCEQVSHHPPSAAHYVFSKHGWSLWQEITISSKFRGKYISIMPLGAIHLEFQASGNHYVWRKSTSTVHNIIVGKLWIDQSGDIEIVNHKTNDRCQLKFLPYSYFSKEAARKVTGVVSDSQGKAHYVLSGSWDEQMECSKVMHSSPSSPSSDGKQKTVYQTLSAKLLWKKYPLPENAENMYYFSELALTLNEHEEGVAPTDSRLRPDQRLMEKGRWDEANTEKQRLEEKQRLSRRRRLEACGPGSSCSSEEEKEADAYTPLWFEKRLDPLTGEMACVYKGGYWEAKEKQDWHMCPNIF
The experiment is described as above. Conditions: PBST pH 7.4, 25 °C; acyl chains of PI(4)P not told for this test (diC8 named only for the competition test). In kind it is binding.

Where two headings read alike, the source gives them in different places.

With `COc1ccc(C(=O)O[C@H]2[C@H](O[C@@H]3[C@@H](OC(C)=O)[C@H](O[C@H]4C[C@H]5[C@@H]6CC=C7C[C@@H](O)CC[C@]7(C)[C@H]6CC[C@]5(C)[C@@]4(O)[C@H](C)C(=O)CCC(C)C)OC[C@@H]3O)OC[C@@H](O)[C@@H]2O)cc1` [OSW-1], on OSBP, the Kd stood at 1.8 ± 0.37 µM.

PI(4)P: the Kd at OSBP (PBST pH 7.4, 25 °C, acyl chains of PI(4)P not told for this test (diC8 named only for the competition test)) was 4.3 ± 1.2 µM; on ORP4L, 12.7 ± 2.1 µM.

As usually defined, the Kd is a measure of binding affinity in units of concentration.
